From patent EP4663640A1 (Shanghai Institute of Materia Medica, Chinese Academy of …, priority 2023, dated 2024)
pIC50: −log10 of the molar value. Like-named read-outs stand apart in the source and are kept apart here.

Molecular target: T1, hTRPC5 (Homo sapiens, UniProt Q9UL62)
T1 construct: expressed in transfected cells; host or cells: HEK-293
T1 sequence (Q9UL62 1-973): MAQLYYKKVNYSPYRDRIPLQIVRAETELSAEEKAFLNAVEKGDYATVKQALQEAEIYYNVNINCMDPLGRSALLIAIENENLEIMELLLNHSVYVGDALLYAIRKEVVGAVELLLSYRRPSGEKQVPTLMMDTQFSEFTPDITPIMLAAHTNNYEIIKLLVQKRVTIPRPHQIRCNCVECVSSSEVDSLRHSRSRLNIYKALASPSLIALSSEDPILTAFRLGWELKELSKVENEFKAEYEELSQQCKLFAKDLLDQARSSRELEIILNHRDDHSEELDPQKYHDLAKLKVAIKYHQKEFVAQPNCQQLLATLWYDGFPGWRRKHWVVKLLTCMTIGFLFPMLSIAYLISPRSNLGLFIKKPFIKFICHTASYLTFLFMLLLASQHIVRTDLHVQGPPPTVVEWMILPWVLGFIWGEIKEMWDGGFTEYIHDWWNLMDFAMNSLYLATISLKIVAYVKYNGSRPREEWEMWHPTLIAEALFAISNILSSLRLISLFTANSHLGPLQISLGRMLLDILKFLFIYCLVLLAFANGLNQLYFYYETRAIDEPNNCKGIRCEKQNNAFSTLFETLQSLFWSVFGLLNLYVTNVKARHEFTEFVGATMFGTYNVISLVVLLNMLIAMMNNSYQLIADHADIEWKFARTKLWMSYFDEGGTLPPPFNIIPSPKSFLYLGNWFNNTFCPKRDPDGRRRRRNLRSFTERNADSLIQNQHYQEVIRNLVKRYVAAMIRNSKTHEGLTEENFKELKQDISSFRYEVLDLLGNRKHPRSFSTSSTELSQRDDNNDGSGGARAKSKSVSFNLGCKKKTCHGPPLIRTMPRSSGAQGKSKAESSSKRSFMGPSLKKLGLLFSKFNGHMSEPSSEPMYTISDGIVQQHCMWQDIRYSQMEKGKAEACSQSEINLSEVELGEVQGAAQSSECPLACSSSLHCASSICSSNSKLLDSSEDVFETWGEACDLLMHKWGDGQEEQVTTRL
Assay: TRPC5 inhibitory activity assay (FLIPR calcium fluorescence, Englerin A stimulation)
Type: cell-based
Method: HEK-293 cells expressing hTRPC3, hTRPC4 or hTRPC5 were seeded into black-bottomed 96-well plates coated with poly-lysine (PDL), with 2×10^4 cells per well. After 8 h of culture, the original culture medium was discarded, and 60 µL of Fluo-4/AM dye with a final concentration of 4 µM was added. The plates were incubated at 37 °C for 60 min, and then rinsed five times with calcium flow detection buffer. […] Then, the agonist Englerin A (EA) (MedChemExpress, Shanghai, China, final concentration of 0.3nM) was added, and the fluorescence signal was collected for 600 seconds. The fluorescence signal of the trajectory diagram is represented by F/F0, wherein F is the fluorescence signal at different time points, and F0 is the basic fluorescence signal, that is, the average value of the fluorescence signal at the first 10 time points. […] The area under the curve of the change in fluorescence intensity after adding EA was calculated. IC50 value was calculated using log[Inhibitor] vs. response - Variable slope, taking into account the area under the curve and the log value of the concentration of the compound.

[1] = Table 1, TRPC5 channels, HEK-293 cells expressing hTRPC5, read-out: FLIPR IC50

SMILES	pIC50 [1]	pIC50
Cn1c(=O)n(CCCO)c(=O)c2c1nc(C1(F)CCC(C(F)(F)F)CC1)n2Cc1ccc(C#N)cc1 (stereo not shown) [Example E73, 4-((8-(1-fluoro-4-(trifluoromethyl)cyclohexyl)-1-(3-hydroxypropyl)-3-methyl-2,6-dioxo-1,2,3,6-tetrahydro-7H-purin-7-yl)methyl)benzonitrile]	8.73	
Cn1c(=O)n(CCCO)c(=O)c2c1nc(/C=N/OC(C)(C)C)n2Cc1ccc(Cl)cc1 [Example E18, (E)-7-(4-chlorobenzyl)-1-(3-hydroxypropyl)-3-methyl-2,6-dioxo-2,3,6,7-tetrahydro-1H-purine-8-carbaldehyde-O-(tert-butyl)oxime]	7.36	
Cn1c(=O)n(CCCO)c(=O)c2c1nc(C1(O)CCC(C(F)(F)F)CC1)n2Cc1ccc(Cl)cc1 (stereo not shown) [Example E23, 7-(4-chlorobenzyl)-8-(1-hydroxy-4-(trifluoromethyl)cyclohexyl)-1-(3-hydroxypropyl)-3-methyl-3,7-dihydro-1H-purine-2,6-dione]	6.49	
Cn1c(=O)n(CCCO)c(=O)c2c1nc(C1CCC3(CC1)OCCO3)n2Cc1ccc(Cl)cc1 [Example E13, 7-(4-chlorobenzyl)-1-(3-hydroxypropyl)-3-methyl-8-(1,4-dioxacyclo[4.5]dec-8-yl)-3,7-dihydro-1H-purine-2,6-dione]		7.09
Cn1c(=O)n(CCCO)c(=O)c2c1nc(C1(F)CCC(C(F)(F)F)CC1)n2Cc1ccc(F)c(Cl)c1 (stereo not shown) [Example E69, 7-(3-chloro-4-fluorobenzyl)-8-(1-fluoro-4-(trifluoromethyl)cyclohexyl)-1-(3-hydroxypropyl)-3-methyl-3,7-dihydro-1H-purine-2,6-dione]	9.43	
CC1CCC(F)(c2nc3c(c(=O)n(CCCO)c(=O)n3C)n2Cc2ccc(Cl)cc2)CC1 (stereo not shown) [Example E39, 7-(4-chlorobenzyl)-8-(1-fluoro-4-methylcyclohexyl)-1-(3-hydroxypropyl)-3-methyl-3,7-dihydro-1H-purine-2,6-dione]	8.33	
Cn1c(=O)n(CCCO)c(=O)c2c1cc(C1CCCC1)n2Cc1ccc(Cl)cc1 [Example E2, 5-(4-chlorobenzyl)-6-cyclopentyl-3-(3-hydroxypropyl)-1-methyl-1,5-dihydro-2H-pyrrolo[3,2-d]pyrimidine-2,4(3H)-dione]	6.95	
Cn1c(=O)n(CCCO)c(=O)c2c1nc(C1=CCC(C)(C)CC1)n2Cc1ccc(Cl)cc1 [Example E11, 7-(4-chlorobenzyl)-8-(4,4-dimethylcyclohex-1-en-1-yl)-1-(3-hydroxypropyl)-3-methyl-3,7-dihydro-1H-purine-2,6-dione]	8.06	
CCn1c(=O)n(CCCO)c(=O)c2c1nc(C1=CCC(C(F)(F)F)CC1)n2Cc1ccc(Cl)c(F)c1 (stereo not shown) [Example E57, 7-(4-chloro-3-fluorobenzyl)-3-ethyl-1-(3-hydroxypropyl)-8-(4-(trifluoromethyl)cyclohex-1-en-1-yl)-3,7-dihydro-1H-purine-2,6-dione]	7.28	
Cn1c(=O)n(CCCO)c(=O)c2c1nc(C1=CCC(C(F)(F)F)CC1)n2Cc1ccc(Cl)cc1 (stereo not shown) [Example E41, 7-(4-chlorobenzyl)-1-(3-hydroxypropyl)-3-methyl-8-(4-(trifluoromethyl)cyclohex-1-en-1-yl)-3,7-dihydro-1H-purine-2,6-dione]	7.26	
Cn1c(=O)n(CCCO)c(=O)c2c1nc(C1=CC(F)C(C)(C)CC1)n2Cc1ccc(Cl)cc1 (stereo not shown) [Example E34]	7.31	
CCC1CCC(F)(c2nc3c(c(=O)n(CCCO)c(=O)n3C)n2Cc2ccc(Cl)cc2)CC1 (stereo not shown) [Example E30, 7-(4-chlorobenzyl)-8-(4-ethyl-1-fluorocyclohexyl)-1-(3-hydroxypropyl)-3-methyl-3,7-dihydro-1H-purine-2,6-dione]	6.55	
COC1(c2nc3c(c(=O)n(CCCO)c(=O)n3C)n2Cc2ccc(Cl)cc2)CCC(C(F)(F)F)CC1 (stereo not shown) [Example E22, 7-(4-chlorobenzyl)-1-(3-hydroxypropyl)-8-(1-methoxy-4-(trifluoromethyl)cyclohexyl)-3-methyl-3,7-dihydro-1H-purine-2,6-dione]	6.70	
Cn1c(=O)n(CCCO)c(=O)c2c1nc(C1(F)CCC(C(F)(F)F)CC1)n2Cc1ccc(F)cc1F (stereo not shown) [Example E65, 7-(2,4-difluorobenzyl)-8-(1-fluoro-4-(trifluoromethyl)cyclohexyl)-1-(3-hydroxypropyl)-3-methyl-3,7-dihydro-1H-purine-2,6-dione]	8.55	
Cn1c(=O)n(CCCO)c(=O)c2c1nc(C1=Cc3ccccc3C1)n2Cc1ccc(Cl)cc1 [Example E20, 7-(4-chlorobenzyl)-1-(3-hydroxypropyl)-8-(1H-inden-2-yl)-3-methyl-3,7-dihydro-1H-purine-2,6-dione]	7.08	
C/C(=N\OC(C)(C)C)c1nc2c(c(=O)n(CCCO)c(=O)n2C)n1Cc1ccc(Cl)cc1 [Example E27, (E)-8-(1-(tert-butoxyimino)ethyl)-7-(4-chlorobenzyl)-1-(3-hydroxypropyl)-3-methyl-3,7-dihydro-1H-purine-2,6-dione]	7.19	

Continued by rising pIC50 [1], values first:

pIC50 [1]	SMILES	pIC50
7.12	CC(C)n1c(=O)n(CCCO)c(=O)c2c1nc(C1CC1C1CCCC1)n2Cc1ccc(Cl)cc1 (stereo not shown) [Example E15, 7-(4-chlorobenzyl)-8-(2-cyclopentylcyclopropyl)-1-(3-hydroxypropyl)-3-isopropyl-3,7-dihydro-1H-purine-2,6-dione]	
7.16	Cn1c(=O)n(CCCO)c(=O)c2c1cc(C1=CCCC1)n2Cc1ccc(Cl)cc1 [Example E1, 5-(4-chlorobenzyl)-6-(cyclopent-1-en-1-yl)-3-(3-hydroxypropyl)-1-methyl-1,5-dihydro-2H-pyrrolo[3,2-d]pyrimidine-2,4(3H)-dione]	
7.38	CC(C)n1c(=O)n(CCCO)c(=O)c2c1nc(C1(F)CCC(C(F)(F)F)CC1)n2Cc1ccc(Cl)cc1 (stereo not shown) [Example E53, 7-(4-chlorobenzyl)-8-(1-fluoro-4-(trifluoromethyl)cyclohexyl)-1-(3-hydroxypropyl)-3-isopropyl-3,7-dihydro-1H-purine-2,6-dione]	
7.71	CC(C)OC1CC=C(c2nc3c(c(=O)n(CCCO)c(=O)n3C)n2Cc2ccc(Cl)cc2)CC1 (stereo not shown) [Example E8, 7-(4-chlorobenzyl)-1-(3-hydroxypropyl)-8-(4-isopropoxycyclohex-1-en-1-yl)-3-methyl-3,7-dihydro-1H-purine-2,6-dione]	
7.72	Cn1c(=O)n(CCCO)c(=O)c2c1nc(C1(F)CCC(C(F)(F)F)CC1)n2Cc1ccc(F)cc1Cl (stereo not shown) [Example E67, 7-(2-chloro-4-fluorobenzyl)-8-(1-fluoro-4-(trifluoromethyl)cyclohexyl)-1-(3-hydroxypropyl)-3-methyl-3,7-dihydro-1H-purine-2,6-dione]	
7.87	Cn1c(=O)n(CCCO)c(=O)c2c1nc(C1CCC(C(F)(F)F)CC1)n2Cc1ccc(Cl)cc1 (stereo not shown) [Example E12, 7-(4-chlorobenzyl)-1-(3-hydroxypropyl)-3-methyl-8-(4-(trifluoromethyl)cyclohexyl)-3,7-dihydro-1H-purine-2,6-dione]	
8.43	Cn1c(=O)n(CCCO)c(=O)c2c1nc(C1(F)CCC(C#N)CC1)n2Cc1ccc(Cl)cc1 (stereo not shown) [Example E40, 4-(7-(4-chlorobenzyl)-1-(3-hydroxypropyl)-3-methyl-2,6-dioxo-2,3,6,7-tetrahydro-1H-purin-8-yl)-4-fluorocyclohexane-1-carbonitrile]	
8.50	CCn1c(=O)n(CCCO)c(=O)c2c1nc(C1(F)CCC(C(F)(F)F)CC1)n2Cc1ccc(Cl)c(F)c1 (stereo not shown) [Example E51, 7-(4-chloro-3-fluorobenzyl)-3-ethyl-8-(1-fluoro-4-(trifluoromethyl)cyclohexyl)-1-(3-hydroxypropyl)-3,7-dihydro-1H-purine-2,6-dione]	
9.57	Cn1c(=O)n(CCCO)c(=O)c2c1nc(C1(F)CCC(C(F)(F)F)CC1)n2Cc1ccc(Cl)cc1F (stereo not shown) [Example E71, 7-(4-chloro-2-fluorobenzyl)-8-(1-fluoro-4-(trifluoromethyl)cyclohexyl)-1-(3-hydroxypropyl)-3-methyl-3,7-dihydro-1H-purine-2,6-dione]	
